According to the supplement of paper PMC4862054:

Columns and labels:
Assay in all cases: normalised response (% of control), CellTiter-Glo; higher = more viable cells (100 = DMSO, 0 = benzethonium chloride kill control)
Settings in all cases: incubation time: 72 h
BT-474 = tested on: BT-474
Summary of the method: (§1)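 For each plate, 0.1 % DMSO was set to 100 and a positive kill control to 0. Breast cancer cell lines (20 µl suspension) were seeded into 384-well plates already holding compound at 5 concentrations in 10-fold steps over a 10,000-fold range chosen per compound, and incubated for 72 h. CellTox Green fluorescence at 485/520 nm was read before CellTiter-Glo luminescence, which followed 10 min at room temperature. Each value is the normalised signal at one concentration.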

BT-549 = tested on: BT-549
Summary of the method: as §1

CAL-120 = tested on: CAL-120
Summary of the method: as §1

CAL-148 = tested on: CAL-148
Summary of the method: as §1

CAL-51 = tested on: CAL-51
Summary of the method: as §1

CAL-85-1 = tested on: CAL-85-1
Summary of the method: as §1

DU-4475 = tested on: DU-4475
Summary of the method: as §1

HCC1143 = tested on: HCC1143
Summary of the method: as §1

HCC1599 = tested on: HCC1599
Summary of the method: as §1

HCC1937 = tested on: HCC1937
Summary of the method: as §1

HDQ-P1 = tested on: HDQ-P1
Summary of the method: as §1

Hs578T = tested on: Hs578T
Summary of the method: as §1

MCF-10A = tested on: MCF-10A
Summary of the method: as §1

MDA-MB-231 = tested on: MDA-MB-231
Summary of the method: as §1

MDA-MB-436 = tested on: MDA-MB-436
Summary of the method: as §1

MDA-MB-453 = tested on: MDA-MB-453
Summary of the method: as §1

MDA-MB-468 = tested on: MDA-MB-468
Summary of the method: as §1

MFM-223 = tested on: MFM-223
Summary of the method: as §1

SK-BR-3 = tested on: SK-BR-3
Summary of the method: as §1

Row | Compound | normalised response (BT-474) | normalised response (BT-549) | normalised response (CAL-120) | normalised response (CAL-148) | normalised response (CAL-51) | normalised response (CAL-85-1) | normalised response (DU-4475) | normalised response (HCC1143) | normalised response (HCC1599) | normalised response (HCC1937) | normalised response (HDQ-P1) | normalised response (Hs578T) | normalised response (MCF-10A) | normalised response (MDA-MB-231) | normalised response (MDA-MB-436) | normalised response (MDA-MB-453) | normalised response (MDA-MB-468) | normalised response (MFM-223) | normalised response (SK-BR-3)
1 | CO[C@H]1/C=C\C=C(/C)C(=O)NC2=CC(=O)C(NCCN(C)C)=C(C[C@@H](C)C[C@H](OC)[C@H](O)[C@@H](C)/C=C(\C)[C@@H]1OC(N)=O)C2=O [Alvespimycin] (1 nM) | 120% | 95.6% | 100% | 112% | 112% | 97.8% | 105% | 97.5% | 102% | 91.6% | 102% | 101% | 106% | 102% | 104% | 113% | 107% | 105% | 105%
2 | O=C(CCCCCCC(=O)Nc1ccc([C@H]2O[C@@H](CSc3nc(-c4ccccc4)c(-c4ccccc4)o3)C[C@@H](c3ccc(CO)cc3)O2)cc1)NO [Tubacin] (10 nM) | 93.5% | 101% | 95.8% | 100% | 110% | 103% | 101% | 103% | 95.3% | 93.1% | 93% | 104% | 99.1% | 94.4% | 96% | 97.2% | 91.2% | 97.9% | 95.2%
3 | Cn1c(Nc2ccc(C(F)(F)F)cc2)nc2cc(Oc3ccnc(-c4ncc(C(F)(F)F)[nH]4)c3)ccc21 [RAF265] (1 nM) | 106% | 96.7% | 104% | 112% | 111% | 104% | 109% | 109% | 102% | 103% | 100% | 105% | 112% | 98.5% | 105% | 127% | 104% | 114% | –
4 | CS(=O)(=O)c1ccc(C2=C(c3ccccc3)C(=O)OC2)cc1 [Rofecoxib] (1 nM) | 103% | 106% | 98.6% | 108% | 69.4% | 98.4% | 106% | 110% | 99.1% | 107% | 101% | 104% | 114% | 104% | 103% | 98.5% | 108% | 111% | 112%
5 | CC(C)Cn1cnc2c(N)nc3ccccc3c21 [Imiquimod] (2.5 nM) | 104% | 95% | 103% | 107% | 114% | 98.4% | 109% | 103% | 113% | 96.2% | 97.2% | 111% | 105% | 103% | 95.8% | 104% | 104% | 105% | –
6 | CC(=O)Nc1ccc(C(=O)Nc2ccccc2N)cc1 [Tacedinaline] (1 nM) | 105% | 96.2% | 97.9% | 95.3% | 124% | 95.8% | 97.6% | 99.5% | 109% | 92.7% | 98.9% | 96% | 93.5% | 97.6% | 101% | 103% | 98.3% | 101% | 97.1%
7 | Cc1ccc(C(=O)N(CCCN)[C@@H](c2oc3cc(Cl)ccc3c(=O)c2Cc2ccccc2)C(C)C)cc1 (0.01 nM) | 95.3% | 104% | 96.6% | 91.8% | 81.7% | 93.8% | 96.6% | 102% | 112% | 102% | 103% | 97.8% | 97.8% | 99% | 97.3% | 101% | 93% | 92.1% | 93.1%
8 | COc1cc2ncnc(Nc3ccc(F)c(Cl)c3)c2cc1NC(=O)/C=C/CN1CCCCC1 [Dacomitinib] (1 nM) | 103% | 99.8% | 100% | 112% | 108% | 91.2% | 100% | 106% | 102% | 94.3% | 90.7% | 105% | 97.7% | 101% | 97.8% | 93.8% | 103% | 101% | –
9 | CCC(C)(C)C(=O)O[C@H]1C[C@@H](C)C=C2C=C[C@H](C)[C@H](CC[C@@H]3C[C@@H](O)CC(=O)O3)[C@H]21 [Simvastatin] (1 nM) | – | 98.9% | 100% | 102% | 114% | 96.8% | 102% | 102% | 111% | 103% | 98.5% | 103% | 107% | 94.8% | – | 106% | 100% | – | 105%
10 | Cc1ccc(-n2nc(C(C)(C)C)cc2NC(=O)Nc2ccc(OCCN3CCOCC3)c3ccccc23)cc1 [Doramapimod] (10 nM) | 93.5% | 99.3% | 94.5% | 80.3% | 121% | 96% | 98.3% | 98.3% | 103% | 91.7% | 95.5% | 101% | 90.7% | 96.3% | 98.1% | 85.8% | 94% | 89.5% | –
11 | COc1cc([C@@H]2c3cc4c(cc3[C@@H](O[C@@H]3O[C@@H]5CO[C@@H](C)O[C@H]5[C@H](O)[C@H]3O)[C@H]3COC(=O)[C@H]23)OCO4)cc(OC)c1O [Etoposide] (10 nM) | 103% | 97.8% | 103% | 106% | 98.9% | 102% | 104% | 107% | 99.7% | 103% | 99.3% | 104% | 113% | 105% | 106% | 109% | 98.6% | 109% | –
12 | O=C(O)c1ccc(-c2c[nH]c3ncc(-c4ccccc4)cc23)cc1C1CCCC1 (10 nM) | 91.8% | 98.7% | 95.3% | 90.4% | 105% | 96.3% | 99.2% | 102% | 108% | 101% | 95.9% | 99.6% | 95.9% | 94% | 95.1% | 91.8% | 96% | 94% | –
13 | CCC1=C[C@@H]2CN(C1)Cc1c([nH]c3ccccc13)[C@@](C(=O)OC)(c1cc3c(cc1OC)N(C)[C@H]1[C@@](O)(C(=O)OC)[C@H](OC(C)=O)[C@]4(CC)C=CCN5CC[C@]31[C@@H]54)C2 [Vinorelbine] (10 nM) | 99.3% | 97.6% | 96.6% | 107% | 87.5% | 98.1% | 101% | 97.5% | 84.7% | 99.1% | 99.4% | 101% | 102% | 101% | 94.4% | 80.7% | 95.8% | 106% | –
14 | CN(N=O)C(=O)N[C@@H](C=O)[C@@H](O)[C@H](O)[C@H](O)CO [Streptozocin] (10 nM) | 109% | – | 100% | 108% | 77.4% | 98.9% | 106% | 105% | – | 109% | 102% | 104% | 105% | 104% | 98.1% | 106% | 114% | 108% | 102%
15 | CN[C@@H]1C[C@H]2O[C@@](C)([C@@H]1OC)n1c3ccccc3c3c4c(c5c6ccccc6n2c5c31)C(=O)N[C@H]4O [UCN-01] (10 nM) | 83.8% | 98.4% | 80.2% | 108% | 106% | 95.1% | 101% | 95.9% | 94% | 94.3% | 96.6% | 92.4% | 90.5% | 81.1% | 106% | 91.8% | 97.3% | 102% | –
16 | CN(C)/N=N/c1[nH]cnc1C(N)=O [Dacarbazine] (10 nM) | 105% | 101% | 98.3% | 102% | 103% | 102% | 101% | 103% | 85.9% | 96.3% | 101% | 105% | 101% | 104% | 101% | 111% | 106% | 104% | –
17 | CNCc1ccc(-c2[nH]c3cc(F)cc4c3c2CCNC4=O)cc1 [Rucaparib] (10 nM) | 93.6% | 96.9% | 94.2% | 82.7% | 112% | 98.9% | 98.3% | 100% | 102% | 102% | 96.8% | 98.5% | 98.4% | 97.2% | 99.5% | 93.9% | 92.3% | 93.5% | –
18 | CS(=O)(=O)c1ccc(C2=C(c3ccccc3)C(=O)OC2)cc1 [Rofecoxib] (10 nM) | 103% | 89.7% | 102% | 115% | 73% | 102% | 105% | 106% | 89% | 104% | 102% | 114% | 107% | 102% | 102% | 110% | 104% | 113% | –
19 | C#Cc1cccc(Nc2ncnc3cc(OCCOC)c(OCCOC)cc23)c1 [Erlotinib] (10 nM) | 99.9% | 97.3% | 102% | 113% | 74.3% | 102% | 105% | 106% | 101% | 96% | 91.7% | 110% | 98.8% | 103% | 103% | 107% | 105% | 111% | –
20 | CCC(C)(C)C(=O)O[C@H]1C[C@@H](C)C=C2C=C[C@H](C)[C@H](CC[C@@H]3C[C@@H](O)CC(=O)O3)[C@H]21 [Simvastatin] (10 nM) | – | – | 96% | 103% | 115% | 96.2% | 104% | 98.7% | – | – | 103% | 96.3% | 108% | 99.2% | 98.1% | 98.3% | 103% | 102% | –
21 | Clc1ccc(Nc2nnc(Cc3ccncc3)c3ccccc23)cc1 [Vatalanib] (10 nM) | 105% | 95% | 96% | 109% | 127% | 100% | 106% | 102% | 89.6% | 102% | 102% | 100% | 105% | 104% | 107% | 104% | 102% | 102% | –
